The values that follow are results of earlier work, collected in US20080160083A1, “COMPOSITION AND METHOD FOR TREATMENT OF PREMENSTRUAL SYMPTOMS” (priority 2007, published 2008).

The conditions of series [1]: all adults; Institute of Medicine 1998.
For series [2] the following is noted: women taking daily vitamin B6 supplements for PMS whose blood levels of B6 were above normal; Dalton, Lancet 1985.

Consider `Cc1ncc(CO)c(CO)c1O` [vitamin B6, 4,5-bis(hydroxymethyl)-2-methylpyridin-3-ol], for which, in series [1], the “upper tolerable intake level (UL)” value is recorded as 100 mg per day. Besides, in series [2], the “neuropathy present (number of women)” value is reported as 23 of 58.
